The subject of one data set is fungal growth. Briefly: Topical treatment of yellow fungal toes. The format is in vivo, patients. The conditions noted are these: 3% weight percent gel, 5 consecutive days then weekly for 4 weeks, after two weeks. The procedure: In the present study, patients suffering from yellow fungal toes were treated with a 3% weight percent BA3540 in a gel formulation (gel comprises propylene glycol and 0.8% Carbopol® Gel) for 5 consecutive days by topical application of the gel formulation on the surrounding nail cuticle area, followed by weekly treatment with the gel formulation for the next 4 weeks. The thickening of the nail caused by fungal growth disappeared after two weeks, and several months later a healthy nail began to appear behind the thick nail.

For another data set, the system named is Sarcocystis neurona. From the text:
The new drug was encapsulated as in Example 4 with 27% palmitic acid and 73% of Sterotex®.
Case 1: “Chris” is a 7 year old quarter horse gelding. […] Chris was given daily oral treatment of the new paste formulation containing lipid encapsulated 2-lauramide-5-nitrothiazole for a total of 28 dosings with 25 gm/syringe. (On day 22 to 28, the drug was not given and then resumed medication in the following week).
Case 2: “Brooke” is an 18-year-old thoroughbred mare. […] Again the horse was given daily oral treatments with the current dose of a typical 1000 lb horse at about 50 mg/Kg body weigh or 25 gm/day.
Case 3: “Foundation Man” is a 22-year-old Appaloosa gelding. […] Foundation Man was given daily oral treatments with the same amount of medication for 28 days.

Data set [1] is described as follows: Solubility and heat stability of the bulk drug. The format is physicochemical. The procedure: In a typical example, an equimolar ratio (approximately 2.5 moles) of lauric acid is activated with dicyclohexyl-carbodiimide (DCC) in 500 mL of dimethylformamide. After 90 minutes, the insoluble dicyclohexylurea formed is removed by vacuum filtration. The activated lauric acid solution is then added in approximately 1:1 ratio of the nucleophile 2-amino-5 nitro-thiazole in 600 mL of methylene chloride, 60 ml of pyridine and made up to 3.5 liters with dimethylformamide. The reaction is allowed to proceed for 40–48 hours with shaking, stirring or heating at 50° C. The product formed is obtained and purified by precipitation and recrystallization in methanol and or acetone. This synthesis scheme is depicted as 2-lauramide-5-nitrothioazole and is a nice needle shaped microcrystal. […] To promote complete dissolution, the drug has to be lightly heated.

In a further data set the test system is HSV. Briefly: Plaque reduction assay, HSV in human embryonic fibroblast cells. The format is cell-based, Herpes simplex virus. The protocol: (§1) The drugs, NTZ and BA 3540, were made soluble at 10 mg/mL in dimethylsulfoxide and then diluted in media to 50 μg/mL, 5 μg/mL, 2.5 μg/mL, and 1.5 μg/mL. Human embryonic fibroblast cells were propagated in minimal essential media and supplemented with 10% fetal bovine serum. Cells were pre-treated with the two drugs at the 4 specified concentrations plus a zero control for 45 minutes. The plates were each infected with 300–400 viral particles of either HSV or HCMV for 1 hour. Drug free media was added to each plate and incubation continued for 3 days to propagate virus. At the end of three days, the supernatant from each of the plates was removed for plaque reduction assays.
For orientation: Plaque reduction counts the foci of infection that form in a cell layer.

In a further data set the test system is HCMV. Briefly: Plaque reduction assay, HCMV in human embryonic fibroblast cells. The format is cell-based, Human Cytomalovirus. The procedure:
as §1

The test system of another data set is coccidia. Briefly: Treatment of coccidiosis in chickens (fecal float oocyst levels). The procedure:
An initial trial involving 120 broilers (4 week old chickens) for the treatment of coccidiosis was made. Three treatment groups were used: (1) control, (2) low dose of 10 mg BA 3540/kg treatment, and (3) high dose at 50 mg BA 3540/kg treatment. The broilers were separated into six pens, […]. Fecal collection was begun to check for the presence of coccidian. The treatments were then assigned and the trial started. The treatment was added to a mash diet and fed adlib for seven days. At the end of the treatment period, new fecal collections for each treatment group were analyzed for the presence of coccidia.
Two fecal samples were taken from each pen and a fecal float was done to check oocyst levels. Oocyst levels are considered to determine the adult coccidian present in an intestinal tract.
A confirmatory trial was conducted with 10 seven-week-old Arbor Acres broilers. The birds were divided into two groups: control and 50 mg/kg treatment groups. The two set of cages were off the floor to prevent any potential contamination. The trial was monitored for four days and fecal floats for oocyte population were used to determine efficacy. Two fecal samples were collected from each cage.

For data set [2] the following is noted: cited from earlier work.
Data set [3] in a line: Degradation of acetylbenzamide nitrothiazole in 0.1 M NaCO3 (optical density). The settings on record: 0.1 M NaCO3, at 3 hours. The format is physicochemical. From the text: (§2) Acetylbenzamide nitrothiazole, otherwise known as NTZ, is an antibiotic drug useful as a treatment for protozoan parasites. […] Acetylbenzamide nitrothiazole encapsulated by Sterotex® as described in Example 1 is hydrophobic and remains afloat on the water surface.
The kinetic of degradation of acetylbenzamnide nitrothiazole in 0.1 M NaCO3 is similar to the aspirin curve of FIG. 1. […] 1, while the free drug has an optical density of 1.9. This example also illustrates the stabilizing effect of lipid encapsulation.

The conditions of data set [4]: free form; cited from earlier work.
A short description of data set [5]: Solubility and stability in water. The format is physicochemical.
Description: as §2

A short description of data set [6]: Degradation of aspirin in sodium carbonate, monitored by UV spectrophotometry. The format is physicochemical. The conditions noted are these: 0.1 M NaCO3 (10 pH), at 27 hours. From the text:
In this example, aspirin is encapsulated in Sterotex® using the method described in Example 1. In aspirin, the deacetylated species is salicylic acid, which has a characteristic absorbency at 296 nm. The comparison of drug stability of Sterotex®/aspirin vs. aspirin was made in 0.1 M NaCO3 (10 pH) and the kinetics of degradation monitored by UV spectrophotometry. In FIG. 1, the appearance of salicylic acid is compared between aspirin encapsulated in Sterotex® and free aspirin. Aspirin slowly dissolves and is hydrolyzed to salicylic acid in a basic solution of 0.1 M NaCO3. At 27 hours, it is roughly 38% hydrolyzed. By contrast, aspirin encapsulated in Sterotex® is quite stable even at 27 hours and is only less than 2% degraded. This example illustrates the increase in drug stability provided by encapsulation in a lipid component.

Where two headings read alike, the source gives them in different places.

As for `CCCCCCCCCCCC(=O)Nc1ncc([N+](=O)[O-])s1` [BA 3540, 2-lauramide-5-nitrothiazole], the “thickening of the nail caused by fungal growth” value in the data set with fungal growth is given as “disappeared”. Also, the “EPM grade after treatment” value in the data set with Sarcocystis neurona (Case 1 Chris, from Grade 3, lipid encapsulated paste, oral daily, 28 dosings, 25 gm/syringe) was 0/1; with Sarcocystis neurona (Case 2 Brooke, started at Grade 2, day 29, about 50 mg/Kg or 25 gm/day oral), 2 grade; with Sarcocystis neurona (Case 3 Foundation Man, from Grade 2/3, 28 day oral treatment), 0 Grade. Besides, the “recovery from EPM” value in the data set on Sarcocystis neurona (all three horses, owners' reports, day 84) is “fully recovered”. In addition, the side effects result in the data set on Sarcocystis neurona (in vivo, po) is listed as “no side effects”. The solubility in methanol result in [1] (bulk drug) is reported as “sparingly soluble”. Besides, in data set [1] (bulk drug), the “solubility in methylene chloride and dimethylforamide” value is reported as “more soluble”. Besides, in [1] (bulk drug), the solubility in water entry is “insoluble”. For the same compound, the “stability on heating in organic solvents” value in data set [1] (methanol, acetone, methylene chloride, dimethylforamide at 60–80° C.) was “no appreciable detriment”. Besides, in the data set with HSV, the therapeutic range was in the range of 5 to 10 µg/mL. For the same compound, the plaques with HSV (1.5 μg/mL, control 110 plaques) is reported as 90; in the data set with HCMV (1.5 μg/mL, controls 300 plaques), 3; in the data set on HCMV (2.5 μg/mL, controls 300 plaques) it was 1; in the data set on HCMV (higher drug concentrations (5 and 50 μg/mL)) it was “none”. The compound further came in with a projected therapeutic range in the data set with HCMV of 1.5 to 2.5 µg/mL. Further, in the data set on coccidia (broilers, 10 and 50 mg/kg in diet), the mortality result was “no mortality”. The “oocytes in fecal samples” value with coccidia (confirmatory trial, 50 mg/kg, four days, seven-week-old broilers) is listed as “no visible oocytes”. In addition, the “samples with detectable oocyst” value with coccidia (high dose group 50 mg/kg in mash diet, initial trial) is 1 of 4. For the same compound, the amount of oocyst entry with coccidia (low treatment group 10 mg/kg in mash diet, initial trial) is listed as “about the same as the control group”.

For the compound `CC(=O)Oc1ccccc1C(=O)Nc1ncc([N+](=O)[O-])s1` [NTZ, Nitazoxanide], the “expiry of bulk drug” value in [2] is reported as “two”. Further, in data set [3], the optical density is recorded as 1.9. For the same compound, the “adverse effects in horses” value in data set [4] is “causes anorexia, depression and diathermia or loose stool”. For the same compound, the stability in water result in data set [5] (standing in water, room temperature) is recorded as “converted to the deacetylated counterpart”. Further, the solubility in water entry in [5] (water) is reported as “sparingly soluble”. For the same compound, the plaques result in the data set with HCMV (all four drug concentrations (1.5, 2.5, 5, 50 μg/mL), control 310 plaques) was “no viral plaques”.

Regarding `CC(=O)Oc1ccccc1C(=O)O` [aspirin], in [6], the “hydrolyzed to salicylic acid (degraded)” value is listed as “roughly 38%”.

The values are drawn from US7125568B2, “Lipophilic drug compositions” (priority 2001, dated 2006).
